Laboratory results from patent US11484529B2, “Desmethylanethole trithione derivatives for the treatment of diseases linked to mitochondrial reactive oxygen species (ROS) production” (OP2 Drugs, priority 2017, dated 2022).

Experiments:
[1] = cited from earlier work
[2] = test system: Sod2-KO mice; assay: Sod2-KO mice (lifespan, heart SDH activity, liver Oil Red O staining); format: in vivo, mouse
Description: Mice deficient in mitochondrial Mn-Superoxide Dismutase (Sod2-KO) on a CD1-background were used. This genetic alteration leads to an adverse phenotype and the death of animals at an average of 8 days old. Mitochondrial superoxide dismutase is a free radical scavenging enzyme which transforms superoxide (highly reactive) into hydrogen peroxide (less reactive), that could then cross mitochondrial membranes and be detoxified by matrix and cytosolic anti-oxidant systems. The aim of this study was to test if AOL could rescue the Sod2-KO phenotype through its activity on IQ superoxide production.
After birth, pups were genotyped (3 day-old) and the litter size was reduced to 6 pups per cage. Animals were then treated (AOL in Kolliphor®—5 mg/kg) or not (Kolliphor® only, noted KOL below). […] Two studies were conducted on two different generations from the same parents: lifespan; and succinate dehydrogenase activity in heart (SDH) and Oil Red O staining in liver. Animals were weighed and injected (intra-peritoneal) daily.
Succinate dehydrogenase activity is a marker of superoxide in the mitochondrial matrix. Thus, a lack of SOD2 is associated with a decrease of SDH activity in heart. The aim of this experiment was to test whether or not AOL could restore SDH activity in KO mice.
However, the direct link between superoxide/hydrogen peroxide production and liver lipid accumulation is not established. The aim of the study was to test the potency of AOL to prevent liver lipid accumulation in Sod2-KO mice.
Animals were injected once a day from 3 days old until their death.
In this study, animals were treated daily (5 mg/kg) from day 3 to day 5. Heart and liver were harvested at day 6.

[3] = test system: pulmonary arterial smooth muscle cells (PASMC); assay: PASMC proliferation (BrdU incorporation); format: cell-based; conditions: AOL 10, 20, 60 or 100 μM, 24 hours
Procedure: Detection of pulmonary arterial smooth muscle cells (PASMC) proliferation was assayed by using a colorimetric immunoassay kit (Roche Applied Science, Indianapolis, Ind., USA) based on the measurement of 5-bromo-2′-deoxy-uridine (BrdU) incorporation during DNA synthesis.
Isolated PASMC were seeded in culture medium supplemented with 10% fetal calf serum (FCS) at a density of 5·10^3 cells/well/100 μL in a 96-well culture plate. The culture plate was placed in a humidified incubator at 37° C. under 5% CO2 in air. After 48 hours, cells were subjected to 48 hours of growth arrest in serum-free culture medium supplemented with 1% insulin-transferrin-selenium. At the end of this period, PASMC were incubated for 24 hours in culture medium containing either: • 0.2% FCS (control condition); • 0.2% FCS+10, 20, 60 or 100 μM AOL; • 0.2% FCS+100 μM 5HT (serotonin); • 0.2% FCS+100 μM 5HT+10, 20, 60 or 100 μM AOL; • 10% FCS; • 10% FCS+10, 20, 60 or 100 μM AOL.
Each condition was tested in triplicate. 10 μL of BrdU (100 μM) was then added to the media and cells were incubated for an additional 2 hours at 37° C. […] Newly synthesized BrdU DNA was determined by measuring absorbance of the samples in an ELISA reader (Spectrostar/nano; BMG Labtech, Champigny-sur-Marne, France) at a wavelength of 380 nm with a reference wavelength of 490 nm.

[4] = test system: retina (outer nuclear layer); assay: Progressive light-induced retinal degeneration; format: in vivo, rat; conditions: 6 mg/kg/day, three times a day, 7 days
Procedure: Rats bred under cyclic low-intensity lighting were transferred to cyclic high-intensity lighting for one week and divided into 3 groups (non-treated animals, vehicle-treated animals and AOL-treated animals). Treated animals received injections of vehicle or AOL at a dose of 6 mg/kg/day, three times a day for the 7 days of the transfer (30 minutes before light-ON; at […]). After one week, animals were transferred in the dark (D0).
A control group (“untransferred”) was not transferred to cyclic high-intensity lighting but received the same treatment as described above: injections of vehicle or AOL three times a day for 7 days, followed by a transfer in the dark (D0).
Animals were then sacrificed for histological analysis.

[5] = test system: H460 carcinoma cells; assay: Transwell cell migration (metastatic activity); format: cell-based, human; conditions: AOX 5 and 10 μM, 16 hours
Procedure: Cell migration assays were performed in Transwells (Corning Inc., 8.0-μm pore size). For migration assay, 2·10^4 cells in serum-free medium were added to the upper wells. Media containing 10% FBS were added to the lower wells. Cells that migrated through the filter after 16 hours were stained with 0.2% crystal violet and counted using the software Image J.
The Transwell test of cell migration has been utilized for this assay and the migration of H460 carcinoma cells has been measured in the presence of two different concentrations of AOX (5 and 10 μM) and compared to the effect of 100 μM N-acetyl cystein (NAC) as a positive control of cytosolic ROS production (FIG. 25).

[6] = 5 mg/kg daily, day 3 to day 5, Oil Red O

| Compound | bioavailability [1] | SDH activity in heart of KO mice ([2]; 5 mg/kg daily, day 3 to day 5) | liver lipid droplets density in KO mice [2, 6] | liver total lipid area in KO mice [2, 6] | lifespan extension compared to untreated KO mice ([2]; 5 mg/kg i.p. daily from 3 days old) | body weight and body weight gain of KO mice ([2]; 5 mg/kg i.p. daily, day 8 to 12) | PASMC proliferation in presence of 0.2% FCS and 100 μM 5HT [3] | PASMC proliferation induced by 10% FCS [3] | thickness of the outer nuclear layer (ONL) ([4]; transferred to cyclic high-intensity lighting) | thickness of the outer nuclear layer (ONL) ([4]; untransferred control group) | metastatic activity (cells crossing the membrane) [5] |
| --- | --- | --- | --- | --- | --- | --- | --- | --- | --- | --- | --- |
| COc1ccc(-c2cc(=S)ss2)cc1 [AOL, 5-(4-methoxyphenyl)-3H-1,2-dithiole-3-thione] | known to be very short | only a very slight increase in SDH activity | lipid droplets density decreased | able to restore the total lipid area | up to 2 days | tends to alleviate this effect | successfully inhibited the proliferation | successfully inhibited the proliferation | significant increase of the thickness of the ONL | no effect on ONL's thickness | – |
| Oc1ccc(-c2cc(=S)ss2)cc1 [AOX, 5-(4-hydroxyphenyl)-3H-1,2-dithiole-3-thione] | – | – | – | – | – | – | – | – | – | – | absence of induction of metastatic activity |
